Test results from patent US20120183489A1, “COMPOSITIONS COMPRISING METALLATED MALODOR CONTROL POLYMERS” (priority 2011, published 2012).

What was measured:
[1] = Malodor control performance, headspace SPME GC/MS, isovaleric acid; settings: 5 ml test solution spiked with 5 microliters; 2 h room temperature, 30 min 35° C.; Control = 1.0; pH 7 (ZnCl2 pH 5)
Method: (§1) This example illustrates the malodor efficacy of the HMPs of the present invention. Isovaleric acid was chosen as a chemical surrogate for body odor while butylamine was used as a representative for amine-containing odors such as fish, pet urine, etc. Hydrophobic greasy cooking odors were represented by aldehydes such as nonanal. The solutions are first equilibrated at room temperature for 2 hours, then incubated at 35° C. for 30 minutes. The headspace of each vial is finally sampled using a polydimethyl siloxane (PDMS)/Solid-Phase-Micro-Extraction (SPME) fiber and analyzed by GC/MS. The reductions in head space concentrations of odor molecules are measured and the data are normalized to Control. Lower numbers denote […] of malodor molecules present in the solution that are attributed to high malodor control efficacy of polymers.

[2] = Sulfur odor control performance, headspace SPME GC/MS, butanethiol; settings: 5 ml test solution spiked with 3 ppm; 2 h room temperature, 30 min 35° C.; Control = 1.0
Method: (§2) Butanethiol and dipropoyl sulfide were chosen as chemical surrogates for sulfur containing odors such as kitchen (onion/garlic), sewage, etc. These two molecules also enable the assessment of efficacy of polymer for sulfur molecules having different degrees of hydrophobicity (e.g more hydrophobic dipropylsulfide is usually harder to mitigate with hydrophilic technologies such as cyclodextrin). 5 ml test solution was placed in a GC-MS vial and spiked with 3 parts-per-million of butanethiol or dipropylsulfide. The solutions were first equilibrated at room temperature for 2 hours, then incubated at 35° C. for 30 minutes. The headspace of each vial was finally sampled using a PDMS/SPME fiber and analyzed by GC/MS. The reductions in head space concentrations of sulfur molecules were measured and the data were normalized to Control (Table 4).

[3] = Sulfur odor control performance, headspace SPME GC/MS, dipropylsulfide; settings: 5 ml test solution spiked with 3 ppm; 2 h room temperature, 30 min 35° C.; Control = 1.0
Method: as §2

[4] = Malodor control performance, headspace SPME GC/MS, butylamine; settings: 5 ml test solution spiked with 5 microliters; 2 h room temperature, 30 min 35° C.; Control = 1.0; pH 7 (ZnCl2 pH 5)
Method: as §1

[5] = tested on: microbes of soiled sponge samples; assay: Odor prevention through microbe reduction, SOLARIS colorimetric detection on soiled sponge; format: cell-based; settings: soiled sponge treated 15 min, dried 12 h; incubated 120 hrs at 37° C.; Control 2.35 hrs
Method: The Control formulation containing no malodor control polymer or zinc salt, and Formulations containing individual polymers, zinc salts, and zinc-polymer complexes are compared for their effect on odor prevention, through microbe reduction.
Soiled sponge samples were cut into 1×6 cm strips and treated with the solutions (Table 5) for 15 minutes and dried at ambient temperature for 12 hours. The treated 1 cm strips were then cut into 1×1 cm pieces, placed into SOLARIS scintillation vials, and 1 ml of MOPS buffer was added. The open vials were placed into outer SOLARIS vials containing thymolphthalein blue pH indicator and the vials were finally capped. The sealed vials were placed into a SOLARIS machine and incubated for 120 hrs at 37° C. Colorimetric measurements were conducted according to SOLARIS VIV protocol and the detection times of acidic respiratory byproducts were record (Table 5).

[6] = Malodor control performance, headspace SPME GC/MS, nonanal; settings: 5 ml test solution spiked with 5 microliters; 2 h room temperature, 30 min 35° C.; Control = 1.0; pH 7 (ZnCl2 pH 5)
Method: as §1

[7] = benchmark values; cited from earlier work

Molecule | head space concentration of Isovaleric Acid (Body) normalized to Control [1] | head space concentration of Butanethiol normalized to Control [2] | head space concentration of Dipropylsulfide normalized to Control [3] | head space concentration of Butylamine (Fish) normalized to Control [4] | Respiratory Byproducts Detection Time [5] [h] | head space concentration of Nonanal (Grease) normalized to Control [6] | ambient temperature water solubility (benchmark) [7] [g/100 ml]
[Cl-].[Cl-].[Zn+2] [ZnCl2, zinc chloride] | 1.0 | 0.8 | 1.0 | 0.0 | 3.38 | 1.0 | 
OC[C@H]1O[C@@H]2O[C@H]3[C@H](O)[C@@H](O)[C@@H](O[C@H]4[C@H](O)[C@@H](O)[C@@H](O[C@H]5[C@H](O)[C@@H](O)[C@@H](O[C@H]6[C@H](O)[C@@H](O)[C@@H](O[C@H]7[C@H](O)[C@@H](O)[C@@H](O[C@H]8[C@H](O)[C@@H](O)[C@@H](O[C@H]1[C@H](O)[C@H]2O)O[C@@H]8CO)O[C@@H]7CO)O[C@@H]6CO)O[C@@H]5CO)O[C@@H]4CO)O[C@@H]3CO [beta-cyclodextrin] |  |  |  |  |  |  | 1.8
hydroxypropyl modified beta cyclodextrin |  |  |  |  |  |  | ≥ 60
